Data reported in doi:10.1101/2024.10.14.618300v1 (biorxiv, 2024).

How the values were obtained:
[1] = biological target: T1, mTSPO (recombinant mouse translocator protein) (Mus musculus, UniProt P50637); assay: […] NMR chemical shift titration; format: binding
[2] = biological target: T1, mTSPO (recombinant mouse translocator protein); assay: […] NMR competition with RF3458; format: binding

SMILES | Kd [1] [µM] | Ki [2] [µM]
CN(C(=O)[C@H](Cc1ccc(F)cc1)NC(=O)c1ccccc1)c1ccccc1 [4b, RF3458] | ~5 | 
CC[C@@H](C)N(C)C(=O)c1cc2ccccc2c(-c2ccccc2Cl)n1 [(R)-PK 11195, 1-(2-Chlorophenyl)-N-methyl-N-(1-methylpropyl)-3-isoquinolinecarboxamide] |  | ~90
